Data as given in US20070280915A1, “Combination Therapies Employing A Composition Comprising A Hmg Coa Reductase Inhibitor And A Vitamin B6 Related Compound” (priority 2003, published 2007).

System: patients who underwent percutaneous coronary intervention (PCI)
Test: Randomized double-blinded study of P5P vs placebo in high-risk percutaneous coronary intervention (PCI)
Assay type: in vivo
Description: Inclusion criteria required prior determination for non-urgent PCI of a single-vessel lesion(s) and identification of ≧1 of the following clinical characteristics determining high risk for procedural-related ischemic complications (Califf R M, Abdelmeguid A E, Kuntz R E, Popma J J, Davidson C J, Cohen E A, Kleiman N S, Mahaffey K W, Topol E J, Pepine C J, et al. Myonecrosis after revascularization procedures. J Am Coll Cardiol 1998; 31:241-251; The ESPRIT Investigators. Novel dosing regimen of eptifibatide in planned coronary stent implantation: a randomised, placebo-controlled trial. Lancet 2000; 356:2037-2044): presence of an acute coronary syndrome (chest pain within 48 hours of PCI), recent AMI (≦7 days), diminished epicardial blood flow, angiographic thrombus, ejection fraction ≦30%, or vein graft lesion. In addition to any general contraindication to the PCI procedure or standard concomitant therapies, major exclusion criteria were creatine kinase (CK-MB) elevation above the upper limit of normal immediately before PCI, electrocardiographic evidence of atrial fibrillation or left bundle branch block, or evidence of any clinically significant abnormal laboratory finding (transaminases, bilirubin, or alkaline phosphatase >1.5 times the upper limit of normal or serum creatinine >1.8 mg/dl). Patients with elevated troponin measurements were permitted in the study provided that the peak troponin value was reported >24 hours before scheduled PCI, with documentation of a decreasing value before revascularization. […] Compliance and reasons for discontinued treatments were recorded for all patients.
Study end points and definitions—The primary objective of the study was to evaluate the feasibility of treatment with P5P as a cardioprotective agent in high-risk elective PCI. The primary end point of infarct size was evaluated by the trapezoidal rule (Press W H, Teukolsky S A, Vetterling W T, Flannery B P. Numerical Recipes. Cambridge, UK: Cambridge University Press, 1994:127-133.) using serial CK-MB enzyme measures performed at baseline and every 6 hours for 24 hours beginning immediately before initiation of PCI. The occurrence of myocardial ischemia within 24 hours after PCI was assessed as a secondary end point using continuous 12-lead electrocardiographic monitoring (Northeast Monitoring, Boston, Mass.). Evidence of periprocedural ischemia was defined as ST-segment depression of >100 μV within a 60-minute period of PCI, lasting ≧1 minute and separated from other episodes by 1 minute. Area under the curve ST-segment deviation was measured from the onset of the first to the last contrast injection. All cardiac markers and ST-segment monitoring data were analyzed by core laboratories blinded to treatment assignment (University of Maryland School of Medicine, Baltimore, Md.; Duke Ischemia Monitoring Laboratory, Durham, N.C.). Additional prespecified secondary end points included the 30-day composite and individual event rates of death; nonfatal infarction; new or worsening heart failure, or recurrent ischemia in addition to net clinical safety, which was defined as the absence of major adverse ischemic events; Thrombolysis In Myocardial Infarction (TIMI) major bleeding; and liver function or coagulation test abnormalities. Acute myocardial infarction (AMI) was defined as CK-MB elevation ≧3 times the upper limit of normal (upper limit of normal 7 ng/ml) and/or troponin T levels […] the upper limit of normal (upper limit of normal 0.1 ng/ml). If previous troponin (or CKMB) values were above the upper limit of normal, values were required to be 50% of the baseline measurement in addition to ≧2 times (≧3 times for CK-MB) the upper limit of normal to meet the definition of AMI. Routine chemistries, complete blood count, and coagulation assays were performed at baseline, 7 days, and 30 days after randomization. […]

## Cc1ncc(COP(=O)(O)O)c(C=O)c1O [P5P, pyridoxal-5-phosphate]
60 patients in safety analyses
  safety issues related to treatment: No safety issues
24 h continuous electrocardiographic ST-monitoring, median (interquartile range)
  Area under the curve ST deviation: 1349 (951-2,263), μV-min
24 h continuous electrocardiographic ST-monitoring, percent of patients
  Any post-PCI ischemia: 14.7-34%
30 days
  deaths: no deaths
30 days, vs 10.0% with placebo, p=1.0
  occurrence of 30-day nonfatal AMI: 12.8%
30 days, vs 15.0% with placebo, p=1.0
  30-day composite adverse event rate (death, nonfatal AMI, new and/or worsening heart failure, or recurrent ischemia): 17.9%
At 7 and 30 days, vs placebo
  abnormalities of routine chemistries or coagulation studies: no apparent differences
Mean per therapy subgroup, with or without adjunctive statin
  CK-MB max (mean): 0.73 ng/mL
Median (interquartile range)
  Time to peak CK-MB: 11.0 (0-18.0), 36 h
Median (interquartile range), P5P 10 mg/kg oral before PCI, then 5 mg/kg twice daily
  Area under the curve CK-MB: 1.1 (0.5-2.4), 39 ng/ml
Median (interquartile range), baseline to within 24 hours after PCI
  Change in troponin T: 0 (0 = 0.7), 36 ng/ml
Median (interquartile range), enteric-coated P5P 10 mg/kg oral before PCI, then 5 mg/kg twice daily 14 days
  Periprocedural cardiac markers: 18.6 (10.2-34.5),
Patients receiving P5P vs placebo
  maximum periprocedural CK-MB level: significantly lower
Vs 10.00% placebo, p=0.26
  need for blood product transfusion: 2.5%
Vs 10.5% placebo, p=0.27
  occurrence of major bleeding: 2.8%
Vs 25.0% placebo, p=0.77
  patients who discontinued drug therapy before completion of the prescribed 2 weeks: 30.8%
Vs 32.9 with placebo, p=0.038
  median periprocedural CK-MB area under the curve (periprocedural infarct size, primary end point): 18.6 ng/mL
